According to PMC6269946, “Anti-Plasmodial Activity of Some Zulu Medicinal Plants and of Some Triterpenes Isolated from Them” (Molecules, 2013):
≈ marks a conversion by molar mass, not a printed value. Where two headings read alike, the source gives them in different places.

What was measured:
[1] = tested on: chloroquine sensitive (CQS) strain of Plasmodium falciparum (D10); test: In vitro antiplasmodial activity, parasite lactate dehydrogenase assay; type: cell-based; conditions: for IC50: Plasmodium falciparum
Method: The test samples (crude extracts, isolates, and chemical derivatives) were tested in triplicate against a chloroquine sensitive (CQS) strain of Plasmodium falciparum (D10). Continuous in vitro cultures of asexual erythrocyte stages of P. falciparum were maintained using modified method of Trager and Jensen. Quantitative assessment of anti-plasmodial activity in vitro was determined via the parasite lactate dehydrogenase assay using a modified method described by Makler. The test samples were prepared to a 20 mg/mL stock solution in 100% DMSO and sonicated to enhance solubility. Stock solutions were stored at −20 °C. Further dilutions were prepared on the day of the experiment. Chloroquine and artesunate were used as the reference drugs for experiments. A full dose-response was performed for all active compounds to determine the concentration inhibiting 50% of parasite growth (IC50-value). Test samples were tested at a starting concentration of 100 μg/mL, which was then serially diluted 2-fold in complete medium to give 10 preparations of variable concentrations; with the lowest concentration being 0.2 μg/mL. The same dilution technique was used for all samples. CQ was tested at a starting concentration of 1,000 ng/mL. The highest concentration of solvent to which the parasite-infected erythrocytes were exposed to had no measurable effect on the parasite viability (data not shown). The IC50-values were obtained using a non-linear dose-response curve fitting analysis via Graph Pad Prism v.4.0 software (Graph Pad Prism, Inc: San Diego, CA, USA, 1994–2003).

Plasmodium berghei = test: In vivo antiplasmodial activity, four-day suppressive test in infected mice; set-up: species or system Swiss mice; conditions: P. berghei infected mice, oral for four consecutive days, smears on day five; chloroquine 5 mg/kg/day; dose not given (50-400 mg/kg/day groups)
Method: This study was carried out after the approval from the Ethical Committee on Animal Use and Care of the University of Zululand (UZREC 171110-030 PGD 2013/26). Swiss mice (20-25 g each) of both sexes were obtained from biomedical research unit (BRU) in the University of […], Durban. They were kept in plastic cages, and given standard laboratory diet and water ad libitum and maintained under laboratory conditions of temperature and 12 h light and 12 h dark cycle. The animals were allowed to acclimatize to the laboratory at a controlled temperature of 22 °C for 15 days before being subjected to the experiments. The animals were divided into seven groups (eight in each group) consisting of control, chloroquine (5 mg/kg/day), and the extract treated group. The extract treated group was sub divided into five sub groups that received 50, 100, 200, 300 and 400 mg/kg/day body weight respectively. A single donor mouse infected with Plasmodium berghei parasites was bled into sterile heparinized culture medium and the blood was diluted with RPMI 1640 medium. The healthy experimental mice were infected intravenously via a tail vein with 0.2 mL of the diluted blood containing 1 × 10^7 parasitized (Plasmodium berghei) red blood cells on day one. The antimalarial activity tests were performed using the four-day suppressive tests described by Peters et al.. The extracts dissolved in 0.5% carboxymethyl cellulose (CMC) were administered orally using cannula (equivalent to 0.2 mL solution per mouse) for four consecutive days. […] The percent parasitemia suppression was determined by counting the number of parasitized erythrocytes out of 500 red blood cells on random fields under the microscope. The average percentage suppression of parasitemia was calculated using the following formula: % suppression = A - B/C (1) where A = % parasitemia in untreated controls, B = % parasitemia in treated groups, and C = % parasitemia in untreated controls. The data were analyzed using the F-test.

[2] = P. falciparum CQS D10 strain, in vitro, pLDH assay, triplicate, starting concentration 100 μg/mL, read-out: IC50 (anti-plasmodial activity, concentration inhibiting 50% of parasite growth)

`C[C@H]1[C@H](C)CC[C@]2(C(=O)O)CC[C@]3(C)C(=CC[C@@H]4[C@@]5(C)CCC(=O)C(C)(C)[C@@H]5CC[C@]43C)[C@H]12` [3-oxo-ursolic acid] showed an IC50 [1, 2] of 7.3 µg/mL (≈ 16.1 µM).

Work on `C[C@H]1[C@H](OC(=O)CCC(=O)O)O[C@@H]2O[C@@]3(C)CC[C@H]4[C@H](C)CC[C@@H]1[C@@]24OO3` [Artesunate, reference compound] yielded an IC50 ([1]; P. falciparum CQS D10 strain, in vitro, pLDH assay, values marked * = ng/mL, read-out: IC50 (anti-plasmodial activity), reference drugs) of 0.0051 µg/mL (≈ 0.0133 µM).

In the case of `CCN(CC)CCCC(C)Nc1ccnc2cc(Cl)ccc12` (centres unmarked) [Chloroquine, reference compound], the “Average % suppression (of parasitemia)” value (Plasmodium berghei) is reported as 83.43% and the IC50 ([1]; D10, read-out: IC50 (anti-plasmodial activity), reference drugs) is reported as 0.0141 µg/mL (≈ 0.0441 µM).

In the case of `CO[C@H]1CC[C@@]2(C)C(CC[C@@]3(C)C4=CC[C@@]5(C)CCC(C)(C)CC5[C@]4(C)CCC23)C1(C)C` (some centres unmarked) [Sawamilletin, sawamilletin], the IC50 [1, 2] is reported as > 100 µg/mL.

For `CC1(C)CC[C@]2(C)CC=C3[C@]4(C)CC[C@H]5C(C)(C)[C@@H](O)CC[C@]5(C)[C@H]4CC[C@@]3(C)[C@@H]2C1` [Taraxerol, taraxerol], the IC50 [1, 2] was > 100 µg/mL.

For `CC(=O)O[C@H]1CC[C@]2(C)[C@H]3CC=C4[C@@H]5[C@@H](C)[C@H](C)CC[C@]5(C(=O)O)CC[C@@]4(C)[C@]3(C)CC[C@H]2C1(C)C` [Ursolic acid acetate, 3β-acetylursolic acid], the Average % parasitemia (Plasmodium berghei) was 0.07%, the “Average % suppression (of parasitemia)” value (Plasmodium berghei) was 94.01% and the IC50 [1, 2] was 1.9 µg/mL. For the same compound, the “Increase in the in vitro anti-malarial activity relative to ursolic acid” value ([1]; acetate derivative versus ursolic acid, P. falciparum D10) was 72%.

`C[C@H]1[C@H](C)CC[C@]2(C(=O)O)CC[C@]3(C)C(=CC[C@@H]4[C@@]5(C)CC[C@H](O)C(C)(C)[C@@H]5CC[C@]43C)[C@H]12` [Ursolic acid, ursolic acid] showed an IC50 [1, 2] of 6.8 µg/mL (≈ 14.9 µM).
